In the supplement of paper PMC10307832:

Assays:
Assay in all cases: relative viability (nuclei count vs DMSO), 5 days (fraction); higher = more cells survive
Erlotinib + Trametinib = compound: C#Cc1cccc(Nc2ncnc3cc(OCCOC)c(OCCOC)cc23)c1 [Erlotinib] + CC(=O)Nc1cccc(-n2c(=O)n(C3CC3)c(=O)c3c(Nc4ccc(I)cc4F)n(C)c(=O)c(C)c32)c1 [Trametinib] (partner 0.02 µM)
Summary of the method: (§1)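 Relative viability is defined as nuclei in treated wells over nuclei in vehicle wells. Duplicate plates were run and medians reported. Lung cancer cell lines in 1536-well plates were dosed by pin tool one day after seeding, with one drug or with a fixed anchor-drug dose plus five library-drug doses (not always all listed) in √10 steps, and nuclei were counted after 5 days.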

Erlotinib + Bortezomib = compound: C#Cc1cccc(Nc2ncnc3cc(OCCOC)c(OCCOC)cc23)c1 [Erlotinib] + CC(C)C[C@H](NC(=O)[C@H](Cc1ccccc1)NC(=O)c1cnccn1)B(O)O [Bortezomib] (partner 0.002 µM)
Summary of the method: as §1

Erlotinib + Dasatinib = compound: C#Cc1cccc(Nc2ncnc3cc(OCCOC)c(OCCOC)cc23)c1 [Erlotinib] + Cc1nc(Nc2ncc(C(=O)Nc3c(C)cccc3Cl)s2)cc(N2CCN(CCO)CC2)n1 [Dasatinib] (partner 0.075 µM)
Summary of the method: as §1

Erlotinib + Olaparib = compound: C#Cc1cccc(Nc2ncnc3cc(OCCOC)c(OCCOC)cc23)c1 [Erlotinib] + O=C(c1cc(Cc2n[nH]c(=O)c3ccccc23)ccc1F)N1CCN(C(=O)C2CC2)CC1 [Olaparib] (partner 8 µM)
Summary of the method: as §1

AT9283 + OSI-027 = compound: O=C(Nc1c[nH]nc1-c1nc2ccc(CN3CCOCC3)cc2[nH]1)NC1CC1 [AT9283] + COc1cccc2cc(-c3nc([C@H]4CC[C@H](C(=O)O)CC4)n4ncnc(N)c34)[nH]c12 [OSI-027] (partner 0.5 µM)
Summary of the method: as §1

Cell Line	relative viability (Erlotinib + Trametinib; first compound 0.02 µM)	relative viability (Erlotinib + Trametinib; first compound 0.2 µM)	relative viability (Erlotinib + Trametinib; first compound 0.6325 µM)	relative viability (Erlotinib + Trametinib; first compound 2 µM)	relative viability (Erlotinib + Bortezomib; first compound 0.2 µM)	relative viability (Erlotinib + Bortezomib; first compound 0.6325 µM)	relative viability (Erlotinib + Bortezomib; first compound 2 µM)	relative viability (Erlotinib + Dasatinib; first compound 0.02 µM)	relative viability (Erlotinib + Dasatinib; first compound 0.2 µM)	relative viability (Erlotinib + Dasatinib; first compound 0.6325 µM)	relative viability (Erlotinib + Dasatinib; first compound 2 µM)	relative viability (Erlotinib + Olaparib; first compound 0.02 µM)	relative viability (Erlotinib + Olaparib; first compound 0.2 µM)	relative viability (Erlotinib + Olaparib; first compound 0.6325 µM)	relative viability (Erlotinib + Olaparib; first compound 2 µM)	relative viability (AT9283 + OSI-027; first compound 0.003 µM)	relative viability (AT9283 + OSI-027; first compound 0.03 µM)	relative viability (AT9283 + OSI-027; first compound 0.09487 µM)	relative viability (AT9283 + OSI-027; first compound 0.3 µM)	relative viability (Erlotinib + Bortezomib; first compound 0.02 µM)
EPLC-272H	0.322	0.282	0.282	0.207	0.875	0.989	0.828	0.461	0.217	0.358	0.279	0.704	0.711	1.01	0.575	0.287	0.312	0.209	0.224	–
NCI-H1355	0.424	0.332	0.326	0.302	1.1	1.24	0.992	0.701	0.571	0.666	0.472	0.796	0.709	0.684	0.558	0.399	0.436	0.276	0.221	1.14
BEN	1.01	0.883	1.24	1.16	0.864	1.28	0.886	0.318	0.381	0.413	0.3	1.3	1.06	1.14	1.03	0.31	0.296	0.24	0.219	0.644
NCI-H1623	–	–	–	–	–	–	–	0.562	0.517	0.315	0.366	–	–	–	–	0.438	0.448	0.358	0.381	–
NCI-H727	0.392	0.387	0.351	0.379	0.844	1	0.701	0.308	–	0.295	0.322	0.696	0.947	0.607	0.721	0.657	0.483	0.487	0.324	0.785
NCI-H2342	1.14	0.814	0.803	0.74	–	–	–	0.289	0.323	0.304	0.26	0.378	0.425	0.462	0.383	0.605	0.576	0.508	0.413	–
UMC-11	0.738	0.637	0.916	0.71	0.837	0.738	0.586	0.512	0.438	0.482	0.424	0.987	0.426	0.477	0.324	0.559	0.17	0.152	0.167	0.934
NCI-H1755	0.793	0.774	0.816	0.737	1.01	0.957	0.9	0.451	0.409	0.386	0.433	0.942	0.892	0.888	0.818	0.697	0.72	0.396	0.537	1.06
IA-LM	–	–	–	–	–	0.977	0.86	–	–	–	–	0.757	–	–	0.905	–	–	–	–	0.833
ABC-1	–	–	–	–	0.355	0.328	0.287	0.564	0.491	0.506	0.565	–	1.01	1.03	0.769	0.436	0.245	0.213	0.201	0.25
NCI-H1793	0.472	0.411	0.411	0.334	–	–	–	0.342	0.249	0.392	0.272	0.819	0.391	0.686	0.436	0.278	0.367	0.188	0.206	–
LK-2	0.867	0.543	0.842	0.586	–	–	–	0.318	0.225	0.306	0.268	0.914	0.706	0.804	0.611	0.2	0.151	0.156	0.143	–
NCI-H358	0.143	0.114	0.12	0.105	–	–	–	0.174	0.129	0.133	0.171	0.583	0.599	0.403	0.199	0.899	0.186	0.0868	0.0708	–
EBC-1	–	–	–	–	0.588	0.477	0.587	–	–	–	–	0.724	0.75	0.675	–	–	–	–	–	0.609
SK-MES-1	0.494	0.345	0.347	0.312	–	–	–	0.338	0.175	0.177	0.156	0.821	0.563	0.465	0.346	0.74	0.619	0.215	0.197	–
SW 900	0.867	0.761	0.771	0.631	–	–	–	0.655	0.506	0.517	0.374	0.907	0.846	0.84	–	0.718	0.703	0.388	0.229	–
NCI-H1944	0.385	0.326	0.361	0.295	–	–	–	0.213	0.219	0.237	0.21	0.396	0.311	0.382	0.304	0.391	0.291	0.201	0.229	–
NCI-H1395	1.1	0.993	1.02	0.989	–	–	–	0.405	0.442	0.411	0.408	0.465	0.43	0.426	0.432	0.523	0.541	0.356	0.363	–
A549	–	–	–	–	–	–	–	–	–	–	–	0.345	0.303	0.332	0.269	–	–	–	–	–
NCI-H1703	–	–	–	–	0.346	0.409	0.238	–	–	–	–	0.48	0.512	0.43	0.389	–	–	–	–	0.296
NCI-H1648	0.5	0.313	0.348	0.289	–	–	–	–	–	–	–	1.4	0.517	0.692	0.442	0.277	0.259	0.283	0.246	–
